# Measured values: ChEMBL document CHEMBL6078616, “Seven-membered N-heterocycles as approved drugs and promising leads in medicinal chemistry as well as the metal-free domino access to their scaffolds” (Eur J Med Chem, 2024)
# Key:
# [1] = target: Histone deacetylase 1 (Homo sapiens, UniProt Q13547); assay: Inhibition of HDAC1 (unknown origin)
# [2] = target: Histone deacetylase 3 (Homo sapiens, UniProt O15379); assay: Inhibition of HDAC3 (unknown origin)
# [3] = target: Histone deacetylase 2 (Homo sapiens, UniProt Q92769); assay: Inhibition of HDAC2 (unknown origin)
# [4] = target: Histone deacetylase 4 (Homo sapiens, UniProt P56524); assay: Inhibition of HDAC4 (unknown origin)
# [5] = target: Histone deacetylase 5 (Homo sapiens, UniProt Q9UQL6); assay: Inhibition of HDAC5 (unknown origin)
# [6] = target: T1, Histone deacetylase 7 (Homo sapiens, UniProt Q8WUI4); assay: Inhibition of HDAC7 (unknown origin)
# T1 sequence (Q8WUI4 whole entry): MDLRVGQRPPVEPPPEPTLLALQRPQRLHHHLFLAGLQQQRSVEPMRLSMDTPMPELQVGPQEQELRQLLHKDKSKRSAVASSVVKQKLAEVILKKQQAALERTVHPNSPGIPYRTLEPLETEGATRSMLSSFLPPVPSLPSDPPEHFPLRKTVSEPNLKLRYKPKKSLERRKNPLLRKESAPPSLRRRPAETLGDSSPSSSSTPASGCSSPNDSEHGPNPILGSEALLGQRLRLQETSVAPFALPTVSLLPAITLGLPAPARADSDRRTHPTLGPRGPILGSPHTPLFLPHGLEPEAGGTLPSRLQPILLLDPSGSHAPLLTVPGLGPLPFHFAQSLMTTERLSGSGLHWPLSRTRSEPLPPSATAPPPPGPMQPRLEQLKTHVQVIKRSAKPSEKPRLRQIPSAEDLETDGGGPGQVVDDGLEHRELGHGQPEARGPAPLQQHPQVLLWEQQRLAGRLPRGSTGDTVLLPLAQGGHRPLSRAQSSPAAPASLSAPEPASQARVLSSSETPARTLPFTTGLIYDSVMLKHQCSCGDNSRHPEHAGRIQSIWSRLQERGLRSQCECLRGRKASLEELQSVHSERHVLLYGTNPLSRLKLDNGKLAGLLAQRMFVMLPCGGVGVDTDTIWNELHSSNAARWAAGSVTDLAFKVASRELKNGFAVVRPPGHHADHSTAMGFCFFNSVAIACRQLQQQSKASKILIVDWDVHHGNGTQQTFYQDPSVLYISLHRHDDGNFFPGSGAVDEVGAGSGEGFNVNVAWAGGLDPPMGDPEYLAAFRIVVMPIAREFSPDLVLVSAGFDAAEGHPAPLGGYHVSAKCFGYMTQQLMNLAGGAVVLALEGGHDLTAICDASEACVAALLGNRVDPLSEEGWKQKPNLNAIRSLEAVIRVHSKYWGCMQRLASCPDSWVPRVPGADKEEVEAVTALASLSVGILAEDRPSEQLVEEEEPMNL
# [7] = target: T2, Histone deacetylase 8 (Homo sapiens, UniProt Q9BY41); assay: Inhibition of HDAC8 (unknown origin)
# T2 sequence (Q9BY41 whole entry): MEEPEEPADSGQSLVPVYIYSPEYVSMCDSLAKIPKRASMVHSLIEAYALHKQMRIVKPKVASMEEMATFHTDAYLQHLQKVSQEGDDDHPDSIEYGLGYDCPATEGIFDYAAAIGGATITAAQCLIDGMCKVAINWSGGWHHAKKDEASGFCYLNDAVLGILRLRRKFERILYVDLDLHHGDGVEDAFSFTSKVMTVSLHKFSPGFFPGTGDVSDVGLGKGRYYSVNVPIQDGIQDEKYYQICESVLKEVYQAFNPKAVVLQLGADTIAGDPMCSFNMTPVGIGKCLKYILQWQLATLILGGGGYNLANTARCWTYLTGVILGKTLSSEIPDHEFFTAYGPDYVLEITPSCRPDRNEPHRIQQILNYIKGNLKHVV
# [8] = target: Histone deacetylase 9 (Homo sapiens, UniProt Q9UKV0); assay: Inhibition of HDAC9 (unknown origin)
# [9] = target: T3, Polyamine deacetylase HDAC10 (Homo sapiens, UniProt Q969S8); assay: Inhibition of HDAC10 (unknown origin)
# T3 sequence (Q969S8 whole entry): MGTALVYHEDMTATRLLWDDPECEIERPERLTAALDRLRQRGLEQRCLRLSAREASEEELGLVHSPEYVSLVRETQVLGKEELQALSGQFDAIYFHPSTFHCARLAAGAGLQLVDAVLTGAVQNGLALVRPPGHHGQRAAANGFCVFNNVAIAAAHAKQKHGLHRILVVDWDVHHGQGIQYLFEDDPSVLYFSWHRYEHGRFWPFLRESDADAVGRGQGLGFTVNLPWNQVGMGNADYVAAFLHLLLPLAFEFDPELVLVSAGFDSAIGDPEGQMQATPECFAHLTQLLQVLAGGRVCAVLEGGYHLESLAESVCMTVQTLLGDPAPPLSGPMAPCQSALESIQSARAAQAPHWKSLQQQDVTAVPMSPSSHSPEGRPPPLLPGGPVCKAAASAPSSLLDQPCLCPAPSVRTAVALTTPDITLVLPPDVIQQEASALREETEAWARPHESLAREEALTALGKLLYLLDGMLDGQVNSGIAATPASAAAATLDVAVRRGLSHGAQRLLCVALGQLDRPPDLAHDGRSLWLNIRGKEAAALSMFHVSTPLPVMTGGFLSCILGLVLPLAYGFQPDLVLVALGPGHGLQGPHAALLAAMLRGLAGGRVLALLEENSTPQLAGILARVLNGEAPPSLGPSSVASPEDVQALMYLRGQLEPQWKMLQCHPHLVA
# [10] = target: T4, Histone deacetylase 11 (Homo sapiens, UniProt Q96DB2); assay: Inhibition of HDAC11 (unknown origin)
# T4 sequence (Q96DB2 whole entry): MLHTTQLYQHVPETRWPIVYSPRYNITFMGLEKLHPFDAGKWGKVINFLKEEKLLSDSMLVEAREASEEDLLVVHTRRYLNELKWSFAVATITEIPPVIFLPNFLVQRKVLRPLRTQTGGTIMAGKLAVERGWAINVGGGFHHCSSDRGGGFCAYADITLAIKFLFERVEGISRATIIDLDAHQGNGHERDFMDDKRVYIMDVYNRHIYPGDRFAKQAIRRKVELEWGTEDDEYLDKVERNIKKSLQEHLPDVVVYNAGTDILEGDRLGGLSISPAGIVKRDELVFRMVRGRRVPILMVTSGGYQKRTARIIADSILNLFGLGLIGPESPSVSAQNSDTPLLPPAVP
# Chain of Histone deacetylase 1 (Q13547 whole entry): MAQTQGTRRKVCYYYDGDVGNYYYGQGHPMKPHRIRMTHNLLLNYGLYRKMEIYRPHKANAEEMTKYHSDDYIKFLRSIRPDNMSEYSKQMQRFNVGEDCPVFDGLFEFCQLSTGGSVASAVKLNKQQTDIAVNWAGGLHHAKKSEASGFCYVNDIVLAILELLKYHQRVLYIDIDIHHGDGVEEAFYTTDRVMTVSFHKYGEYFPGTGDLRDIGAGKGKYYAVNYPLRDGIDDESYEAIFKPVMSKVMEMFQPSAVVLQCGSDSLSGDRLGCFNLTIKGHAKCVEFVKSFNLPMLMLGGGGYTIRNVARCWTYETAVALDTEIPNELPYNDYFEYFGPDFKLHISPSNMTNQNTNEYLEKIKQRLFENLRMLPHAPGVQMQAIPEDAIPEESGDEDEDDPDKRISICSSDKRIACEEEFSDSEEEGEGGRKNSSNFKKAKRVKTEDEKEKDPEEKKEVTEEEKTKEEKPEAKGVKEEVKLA
# Chain of Histone deacetylase 9 (Q9UKV0 whole entry): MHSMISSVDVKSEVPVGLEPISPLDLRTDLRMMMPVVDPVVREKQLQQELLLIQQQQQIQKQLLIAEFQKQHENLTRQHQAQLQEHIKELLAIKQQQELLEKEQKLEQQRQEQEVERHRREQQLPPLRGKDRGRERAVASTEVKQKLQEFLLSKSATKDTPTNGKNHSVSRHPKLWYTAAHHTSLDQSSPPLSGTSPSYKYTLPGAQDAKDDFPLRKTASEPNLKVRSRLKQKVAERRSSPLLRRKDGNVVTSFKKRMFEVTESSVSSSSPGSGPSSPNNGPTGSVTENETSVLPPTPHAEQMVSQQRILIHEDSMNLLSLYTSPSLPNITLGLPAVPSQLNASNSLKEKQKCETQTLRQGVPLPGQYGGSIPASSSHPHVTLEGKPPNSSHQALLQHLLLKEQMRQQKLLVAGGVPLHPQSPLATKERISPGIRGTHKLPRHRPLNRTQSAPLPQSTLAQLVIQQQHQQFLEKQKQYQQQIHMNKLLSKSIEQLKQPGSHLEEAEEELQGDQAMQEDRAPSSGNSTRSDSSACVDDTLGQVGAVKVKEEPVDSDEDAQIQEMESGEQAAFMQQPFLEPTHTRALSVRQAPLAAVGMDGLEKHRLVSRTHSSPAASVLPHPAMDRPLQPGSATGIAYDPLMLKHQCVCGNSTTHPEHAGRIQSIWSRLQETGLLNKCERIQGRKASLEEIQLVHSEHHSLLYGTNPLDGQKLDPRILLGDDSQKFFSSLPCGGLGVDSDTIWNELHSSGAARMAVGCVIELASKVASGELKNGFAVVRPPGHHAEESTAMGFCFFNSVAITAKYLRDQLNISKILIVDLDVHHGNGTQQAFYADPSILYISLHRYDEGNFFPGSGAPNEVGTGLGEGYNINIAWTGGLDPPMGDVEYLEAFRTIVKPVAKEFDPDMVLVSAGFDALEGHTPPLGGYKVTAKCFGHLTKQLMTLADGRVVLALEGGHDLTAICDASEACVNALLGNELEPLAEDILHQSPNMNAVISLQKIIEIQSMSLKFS
# Chain of Histone deacetylase 3 (O15379 whole entry): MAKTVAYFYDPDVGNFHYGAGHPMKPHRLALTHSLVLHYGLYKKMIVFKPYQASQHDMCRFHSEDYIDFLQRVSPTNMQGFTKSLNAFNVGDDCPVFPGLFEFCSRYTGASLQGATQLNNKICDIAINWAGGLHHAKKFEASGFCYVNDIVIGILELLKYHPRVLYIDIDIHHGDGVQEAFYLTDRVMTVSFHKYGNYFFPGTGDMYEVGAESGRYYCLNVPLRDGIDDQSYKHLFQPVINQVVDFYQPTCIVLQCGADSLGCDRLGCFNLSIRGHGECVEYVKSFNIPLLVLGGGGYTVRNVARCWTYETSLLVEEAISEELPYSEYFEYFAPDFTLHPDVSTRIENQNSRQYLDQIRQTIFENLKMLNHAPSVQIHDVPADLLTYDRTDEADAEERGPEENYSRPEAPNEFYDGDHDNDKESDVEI
# Chain of Histone deacetylase 2 (Q92769 whole entry): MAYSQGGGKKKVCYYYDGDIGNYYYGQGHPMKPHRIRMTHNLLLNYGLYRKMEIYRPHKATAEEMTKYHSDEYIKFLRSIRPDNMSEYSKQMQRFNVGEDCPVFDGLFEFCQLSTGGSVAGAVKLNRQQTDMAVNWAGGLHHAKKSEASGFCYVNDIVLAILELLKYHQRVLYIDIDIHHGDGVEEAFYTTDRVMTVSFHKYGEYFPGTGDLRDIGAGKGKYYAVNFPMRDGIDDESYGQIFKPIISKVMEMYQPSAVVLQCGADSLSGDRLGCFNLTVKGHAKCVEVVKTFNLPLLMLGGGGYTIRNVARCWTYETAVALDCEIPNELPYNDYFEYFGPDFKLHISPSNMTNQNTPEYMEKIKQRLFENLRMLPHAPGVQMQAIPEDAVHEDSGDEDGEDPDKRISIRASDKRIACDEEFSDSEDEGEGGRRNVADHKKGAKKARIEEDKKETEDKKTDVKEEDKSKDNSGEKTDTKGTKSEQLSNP
# Chain of Histone deacetylase 4 (P56524 whole entry): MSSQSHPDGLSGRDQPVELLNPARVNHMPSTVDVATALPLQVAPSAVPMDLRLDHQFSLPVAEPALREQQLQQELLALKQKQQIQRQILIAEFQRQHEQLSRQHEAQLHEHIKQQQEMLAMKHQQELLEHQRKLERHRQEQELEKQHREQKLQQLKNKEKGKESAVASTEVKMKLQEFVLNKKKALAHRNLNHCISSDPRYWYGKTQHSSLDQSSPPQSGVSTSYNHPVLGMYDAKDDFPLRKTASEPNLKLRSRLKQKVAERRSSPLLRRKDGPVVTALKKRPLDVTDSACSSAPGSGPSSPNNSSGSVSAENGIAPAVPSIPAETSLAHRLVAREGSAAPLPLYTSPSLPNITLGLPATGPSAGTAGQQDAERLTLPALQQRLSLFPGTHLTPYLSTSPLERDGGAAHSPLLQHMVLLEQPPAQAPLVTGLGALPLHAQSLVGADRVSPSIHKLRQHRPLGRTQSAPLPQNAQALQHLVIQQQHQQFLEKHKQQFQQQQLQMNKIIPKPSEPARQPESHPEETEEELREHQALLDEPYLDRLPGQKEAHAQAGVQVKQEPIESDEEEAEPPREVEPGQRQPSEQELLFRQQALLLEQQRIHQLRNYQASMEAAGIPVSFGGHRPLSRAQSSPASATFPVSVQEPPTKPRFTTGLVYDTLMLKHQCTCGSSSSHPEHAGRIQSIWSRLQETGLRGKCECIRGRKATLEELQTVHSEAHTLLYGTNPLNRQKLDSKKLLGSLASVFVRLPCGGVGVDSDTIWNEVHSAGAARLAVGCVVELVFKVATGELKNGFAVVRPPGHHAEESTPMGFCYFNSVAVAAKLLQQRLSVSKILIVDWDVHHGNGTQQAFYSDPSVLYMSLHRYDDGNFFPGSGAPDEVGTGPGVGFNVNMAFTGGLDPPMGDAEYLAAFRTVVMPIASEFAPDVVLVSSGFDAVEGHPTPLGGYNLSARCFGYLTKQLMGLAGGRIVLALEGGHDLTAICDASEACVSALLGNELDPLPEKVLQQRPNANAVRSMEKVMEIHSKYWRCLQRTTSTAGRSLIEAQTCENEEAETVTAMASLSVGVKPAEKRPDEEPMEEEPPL
# Chain of Histone deacetylase 5 (Q9UQL6 whole entry): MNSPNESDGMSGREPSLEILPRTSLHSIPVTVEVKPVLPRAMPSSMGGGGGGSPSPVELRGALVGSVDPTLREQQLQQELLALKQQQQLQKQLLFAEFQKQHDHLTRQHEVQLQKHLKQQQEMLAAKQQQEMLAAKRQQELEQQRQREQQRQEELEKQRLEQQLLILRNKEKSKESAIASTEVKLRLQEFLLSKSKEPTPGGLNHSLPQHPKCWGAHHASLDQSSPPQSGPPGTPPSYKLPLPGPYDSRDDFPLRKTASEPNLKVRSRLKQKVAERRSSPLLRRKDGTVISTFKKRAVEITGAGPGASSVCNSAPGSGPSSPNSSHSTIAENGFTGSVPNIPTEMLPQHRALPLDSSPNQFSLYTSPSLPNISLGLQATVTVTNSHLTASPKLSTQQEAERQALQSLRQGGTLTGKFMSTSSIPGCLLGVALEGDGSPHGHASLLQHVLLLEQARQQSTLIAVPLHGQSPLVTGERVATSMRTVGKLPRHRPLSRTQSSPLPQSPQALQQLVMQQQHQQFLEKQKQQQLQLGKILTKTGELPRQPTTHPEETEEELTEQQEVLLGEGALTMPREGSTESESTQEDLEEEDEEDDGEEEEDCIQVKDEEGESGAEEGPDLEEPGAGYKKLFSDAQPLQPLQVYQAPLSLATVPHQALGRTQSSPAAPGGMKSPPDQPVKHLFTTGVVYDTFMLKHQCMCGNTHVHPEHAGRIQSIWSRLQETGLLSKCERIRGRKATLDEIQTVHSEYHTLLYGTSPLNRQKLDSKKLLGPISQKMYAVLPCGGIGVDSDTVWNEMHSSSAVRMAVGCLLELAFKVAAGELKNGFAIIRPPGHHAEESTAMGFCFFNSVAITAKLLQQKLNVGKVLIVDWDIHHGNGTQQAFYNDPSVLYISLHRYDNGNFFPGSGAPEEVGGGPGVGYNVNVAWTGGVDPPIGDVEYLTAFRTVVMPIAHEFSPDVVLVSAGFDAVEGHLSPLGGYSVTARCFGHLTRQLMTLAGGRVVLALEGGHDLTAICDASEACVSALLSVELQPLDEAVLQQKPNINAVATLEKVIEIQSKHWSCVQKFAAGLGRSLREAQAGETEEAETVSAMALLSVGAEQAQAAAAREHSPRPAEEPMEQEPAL
structure (smiles),measurement,setting,value
O=C(NO)c1ccc(CN2c3ccccc3[S+]([O-])C[C@H]3CCCC[C@H]32)cc1 (stereo not given in full),IC50,[1],4.9 µM
same,IC50,[2],26 µM
same,IC50,[3],26 µM
same,IC50,[4],> 30 µM
same,IC50,[5],12 µM
same,IC50,[6],> 30 µM
same,IC50,[7],2.9 µM
same,IC50,[8],8.9 µM
same,IC50,[9],14 µM
same,IC50,[10],0.54 µM
